Several values for one entry are separate records, joined by “and”; a condition that tells them apart may be missing. Equal values may be shown once. Read-outs that look alike come from different tables or passages of the source.
Target: T1, Type I 5α-reductase (Homo sapiens, UniProt P18405)
T1 construct: Scalp punch biopsies from graft recipient sites were obtained; from tissue; host or cells: human scalp skin (punch biopsies from hair transplant procedures); 100,000 x g pellet of the homogenate
T1 sequence (P18405 1-259): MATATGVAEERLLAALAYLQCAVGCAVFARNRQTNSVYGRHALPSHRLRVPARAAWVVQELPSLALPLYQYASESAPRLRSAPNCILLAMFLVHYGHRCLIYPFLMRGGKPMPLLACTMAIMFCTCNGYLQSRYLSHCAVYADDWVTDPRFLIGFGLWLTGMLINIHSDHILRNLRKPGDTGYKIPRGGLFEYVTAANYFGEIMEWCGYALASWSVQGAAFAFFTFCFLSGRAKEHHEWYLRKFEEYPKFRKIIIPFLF
Experiment: Human Type I steroid 5α-reductase homogenate assay (conversion of [3H]-testosterone to [3H]-DHT and other 5α-reduced metabolites)
Assay type: biochemical
Protocol: Methodology of Human Type I Steroid 5α-Reductase Assays
Preparation of Type I 5α-Reductase from Human Scalp: Scalp punch biopsies from graft recipient sites were obtained, following the proper Informed Consent and Institutional Review Board guidelines, from human hair transplant procedures immediately after surgery and were frozen on dry ice and stored at -80°C. Approximately 60-75 punches from one surgical procedure were used to generate an enzyme preparation. The subcutaneous tissue was cut away and discarded. The skin was frozen with liquid nitrogen and pulverized to powder. The powder was homogenized in 30 mL of ice-cold buffer (20 mM Tris-HCl, pH 7.5) using a Brinkmann Polytron (Westbury, NY) with a PTA 10-S probe and a setting of 7. The homogenization procedure consisted of four 15 second pulses. Connective tissue was cleared from the probe with forceps between pulses. The homogenate was then filtered through cheese cloth and the filtrate centrifuged at 100,000 x g for one hour in a Beckman L8-60M ultracentrifuge. The pellet was resuspended by homogenization with a Dounce homogenizer using the same buffer solution. An aliquot was taken for protein determination by the Lowry method, Lowry, et al., Protein Measurement with the Folin Phenol Reagent, J. Biol. Chem., 193, 265-75 (1951). Aliquots of the enzyme preparation were stored at -80° until use. Human 5α-Reductase Homogenate Assay: This enzyme assay is based on the conversion of [^3H]-testosterone to [^3H]-5α -dihydrotestosterone (DHT) and other 5α-reduced metabolites. […] In a total volume of 1.0 mL, the Type I assay contained 2.6 µCi [^3H]-testosterone (50 nM), 500 µM of reduced nicotine adenine dinucleotide phosphate, 100 mM Tris-HCl, pH 7.5, (in Type II assays, 40 mM sodium acetate at pH 5.5 is used instead of Tris-HCl) and test compounds as indicated. Test compounds were added in 20 µL of dimethylsulfoxide (20 µL of dimethylsulfoxide was added to blanks and controls). The reaction was initiated by the addition of 0.5 mg of Type I 5α-reductase. The reaction mixture was incubated at 25° for 180 min, and terminated by the addition of 1 mL ice-cold stopping solution. The stopping solution contained 40 µM each of non-radioactive testosterone, DHT, androstenedione, androstanedione, androsterone, androstan-3β17β- diol, and androstan-3α,17β-diol. The samples were prepared for high performance liquid chromatography by solid phase extraction. Disposable solid matrix extraction columns (C-18 reversed phase, 6 mL, 500 mg; Bond Elut™ from Analytichem International; Harbor City, CA) were conditioned by washing with 5 mL of methanol followed by 5 mL of deionized water. The reaction mixtures were then applied to the columns. The columns were subsequently washed with 5 mL of acetone:water (1:4), followed by 0.3 mL of methanol. The samples were then eluted with 3 mL of methanol and collected in 20 mL scintillation vials. Three mL of water was then added to each scintillation vial. The solutions were then transferred to tubes and centrifuged for 30 min at 1000 x g to remove any particulate material before chromatography. The [^3H]-testosterone substrate and its metabolites were separated by chromatography using a C-18 reversed phase column (Beckman Ultrasphere 5µm spherical 80A pore, part no. 235329, 4.6 mm i.d. x […]) with an isocratic mobile phase (46 water: 46 methanol: 8 tetrahydrofuran by volume). The column temperature was maintained at 35° and the flow rate was 1.5 mL/min. A 400 µL aliquot was injected onto the column and radioactivity was determined using a Beckman 171 in-line flow radioisotope detector in conjunction with Rainin Dynamax™ software and a Macintosh computer. The flow rate of the Atomflow™ scintillation fluid was 4.5 mL / min.

[1] = 0.3 µM concentration of compound, compared to control reaction mixtures, 0.3 µM
[2] = 0.3 µM concentration of compound, compared to control reaction mixtures
[3] = 0.3 µM concentration of compound, compared to control reaction mixtures, read-out: percent inhibition of Type I 5AR

| Compound | percent inhibition of Type I 5AR [2] | inhibition at 0.3 µM [3] [%] | other results |
| --- | --- | --- | --- |
| CN1C(=O)CC[C@]2(C)c3ccc(-c4cccc5ccccc45)cc3CC[C@@H]12 [Example 53, (+)-(4aR)-(10bR)-4-methyl-8-(1-naphthyl)-10b-methyl-1,2,3,4,4a,5,6,10b-octahydrobenzo[f]quinolin-3-one] |  |  | percent inhibition of Type I 5AR [1]: 100% and 66% |
| CN1C(=O)CC[C@]2(C)c3ccc(Sc4nc5c(ccc6ccccc65)s4)cc3CC[C@@H]12 [Example 163, (+)-(4aR)-(10bR)-4-methyl-8-(2-naphtho〈1,2-d〉-thiazolylthio)-10b-methyl-1,2,3,4,4a 5,6,10b-octahydrobenzo[f]-quinolin-3-one] | 80% |  |  |
| CN1C(=O)CC[C@]2(C)c3ccc(Sc4nc5c(Cl)cccc5s4)cc3CC[C@@H]12 [Example 164, (+)-(4aR)-(10bR)-4-methyl-8-(4-chloro-2-benzothiazolylthio)-10b-methyl-1,2,3,4,4a,5,6,10b-octahydrobenzo[f]quinolin-3-one] |  |  | percent inhibition of Type I 5AR [1]: 87% |
| CN1C(=O)CC[C@]2(C)c3ccc(-c4cc(F)c(F)c(F)c4)cc3CC[C@@H]12 [Example 206, (+)-(4aR)-(10bR)-4-methyl-8-(3,4,5-trifluorophenyl)-10b-methyl-1,2,3,4,4a,5,6,10b-octahydrobenzo[f]quinolin-3-one] |  |  | percent inhibition of Type I 5AR [1]: 100% |
| CN1C(=O)CC[C@]2(C)c3ccc(-c4ccc(Cl)cc4)cc3CC[C@@H]12 [Example 50, (+)-(4aR)-(10bR)-4-methyl-8-(4-chlorophenyl)-10b-methyl-1,2,3,4,4a,5,6,10b-octahydrobenzo[f]quinolin-3-one] |  |  | percent inhibition of Type I 5AR [1]: 94% |
| CN1C(=O)CC[C@]2(C)c3ccc(CCc4ccccc4)cc3CC[C@@H]12 [Example 280, (4aR)-(10bR)-4,10b-dimethyl-8-(2-phenylethyl)-1,2,3,4,4a,5,6,10b-octahydrobenzo[f]quinolin-3-one] |  |  | percent inhibition of Type I 5AR [1]: 100% |
| (+)-(4aR)-(10bR)-4-methyl-8-(3-[1-benzyl-4-piperidinylcarboxamidolphenyl)-10b-methyl-1,2,3,4,4a,5,6,10b-octahydrobenzo[f]quinolin-3-one [Example 209] | 24% |  |  |
| C[C@]12C=CC(=O)N[C@@H]1CCc1cc(-c3cc4ccccc4cn3)ccc12 [Example 142, (+)-(4aR)-(10bR)-8-(3-isoquinolinyl)-10b-methyl-3,4,4a,5,6,10b-hexahydrobenzo[f]quinolin-3-one] |  | 22 |  |
| C[C@]12CCC(=O)N[C@@H]1CCc1cc(-c3cnc4ccccc4c3)ccc12 (single isomer, unassigned) [Example 45] |  | 11 |  |
| Cc1cccc2sc(Sc3ccc4c(c3)CC[C@H]3N(C)C(=O)CC[C@]43C)nc12 [Example 159, (+)-(4aR)-(10bR)-4-methyl-8-(4-methyl-2-benzothiazolylthio)-10b-methyl-1,2,3,4,4a,5,6,10b-octahydrobenzo[f]quinolin-3-one] | 87, 87% | 87 |  |
| (+)-(4aR)-(10bR)-4-methyl-8-(2-[6-benzyloxy]naphthyl)-10b-methyl-1,2,3,4,4a,5,6,10b-octahydrobenzo[f]quinolin-3-one [Example 62] | 45% |  |  |
| CN1C(=O)CC[C@]2(C)c3ccc(C=Cc4ccccc4)cc3CC[C@@H]12 [Example 285, (4aR)-(10bR)-4,10b-dimethyl-8-(2-phenylethenyl)-1,2,3,4,4a,5,6,10b-octahydrobenzo[f]quinolin-3-one] |  |  | percent inhibition of Type I 5AR [1]: 93% |
| CN1C(=O)CC[C@]2(C)c3ccc(-c4ccc(NS(C)(=O)=O)cc4)cc3CC[C@@H]12 [Example 123, (+)-(4aR)-(10bR)-4-methyl-8-(4-methylsulfonamidophenyl)-10b-methyl-1,2,3,4,4a,5,6,10b-octahydrobenzo[f]quinolin-3-one] |  | 10 |  |
| CN1C(=O)CC[C@]2(C)c3ccc(C=Cc4ccccc4)cc3CC[C@@H]12 [Example 279, (4aR)-(10bR)-4,10b-dimethyl-8-(2-phenylethenyl)-1,2,3,4,4a,5,6,10b-octahydrobenzo[f]quinolin-3-one] |  |  | inhibition at 0.3 µM (read-out: percent inhibition of Type I 5AR, 0.3 µM concentration of compound, compared to control reaction mixtures): 85% |
| C[C@]12CCC(=O)N[C@@H]1CCc1cc(Sc3ccccc3Cl)ccc12 (single isomer, unassigned) [Example 7] |  | 49 |  |

More lines, main results first:

| percent inhibition of Type I 5AR [2] | inhibition at 0.3 µM [3] [%] | Compound | other results |
| --- | --- | --- | --- |
| 90% |  | (+)-(4aR)-(10bR)-4-methyl-8-benzyloxycarbonyl-10b-methyl-1,2,3,4,4a,5,6,10b-octahydrobenzo[f]quinolin-3-one [Example 144] |  |
| 3% |  | (+)-(4aR)-(10bR)-4-methyl-8-(4-fluoro-3-trifluoromethylphenyl)-10b-methyl-1,2,3,4,4a,5,6,10b-octahydrobenzo[f]quinolin-3-one [Example 46] |  |
| 47% |  | (+)-(4aR)-(10bR)-4-methyl-8-(2aR,4S-1-benzoyl-4-dipropylamino-2,2a,3,4-tetrahydrobenz[cd]-1H-indol-7-yl)-10b-methyl-1,2,3,4,4a,5,6,10b-octahydrobenzo[f]quinolin-3-one [Example 225] |  |
|  | 75 | CN1C(=O)CC[C@]2(C)c3ccc(/C=C/c4cnc5ccccc5c4)cc3CC[C@@H]12 [Example 282, (4aR)-(10bR)-4,10b-dimethyl-8-(2-[3-quinolinyl]ethenyl)-1,2,3,4,4a,5,6,10b-octahydrobenzo[f]quinolin-3-one] |  |
|  | 75 | CN1C(=O)CC[C@]2(C)c3ccc(/C=C/c4cncc5ccccc45)cc3CC[C@@H]12 [Example 281, (4aR)-(10bR)-4,10b-dimethyl-8-(2-[4-isoquinolinyl]ethenyl)-1,2,3,4,4a,5,6,10b-octahydrobenzo[f]quinolin-3-one] |  |
| 86% |  | CN1C(=O)CC[C@]2(C)c3ccc(-c4ccc(-c5ccc(NC(=O)C(C)(C)C)s5)cc4)cc3CC[C@@H]12 [Example 222, (+)-(4aR)-(10bR)-4-methyl-8-(4-[(2-t-butylcarbonylamino]-5-thienyl]phenyl)-10b-methyl-1,2,3,4,4a,5,6,10b-octahydrobenzo[f]quinolin-3-one] |  |
| 16% |  | (+)-(4aR)-(10bR)-4-methyl-8-(2aR,4S-1-benzoyl-4-amino-2,2a,3,4-tetrahydrobenz[cd]-1H-indol-7-yl)-10b-methyl-1,2,3,4,4a,5,6,10b-octahydrobenzo[f]quinolin-3-one [Example 226] |  |
| 11% |  | C[C@]12CCC(=O)N[C@@H]1CCc1cc(-c3cnc4ccccc4c3)ccc12 [Example 196, (+)-(4aR)-(10bR)-8-(3-quinolinyl)-10b-methyl-1,2,3,4,4a,-5,6,10b-octahydrobenzo[f]quinolin-3-one] |  |
|  | 54 | CN1C(=O)CC[C@]2(C)c3ccc(-c4ccc5c(c4)CCC5O)cc3CC[C@@H]12 (single isomer, unassigned; (+)) [Example 245] |  |
|  | 87 | CN1C(=O)CC[C@]2(C)c3ccc(/C=C/c4ccc5ccccc5n4)cc3CC[C@@H]12 [Example 283, (4aR)-(10bR)-4,10b-dimethyl-8-(2-[2-quinolinyl]ethenyl)-1,2,3,4,4a,5,6,10b-octahydrobenzo[f]quinolin-3-one] |  |

From patent EP0733365A2, “Use of benzoquinolin-3-ones for the treatment and prevention of prostatic cancer” (priority 1995, dated 1996)
